Test results as given in patent US9549560B2, “Pesticidal compositions and related methods” (DOW AGROSCIENCES LLC, priority 2013, dated 2017).

Columns and labels:
[1] = system: Sweetpotato Whitefly-Crawler (Bemisia tabaci); experiment: Insecticidal test for Sweetpotato Whitefly-Crawler (WF) (BEMITA) in foliar spray assay on cotton plants; format: in vivo; settings: 216 h, 200 ppm foliar spray, graded after 9 days, Abbott corrected % control, read-out: % Control (or Mortality) rating, WF
Protocol: Cotton plants (Gossypium hirsutum) grown in 3-inch pots, with 1 small (4-5 cm) true leaves, were used as test substrate. The plants were infested with 200-400 whitefly eggs 4-5 days prior to chemical application. Four pots with individual plants were used for each treatment. Test compounds (2 mg) were dissolved in 1 mL of acetone solvent, forming stock solutions of 2000 ppm test compound. The stock solutions were diluted 10× with 0.025% Tween 20 in H2O (diluents) to obtain the solution at 200 ppm test compound. A hand-held aspirator-type sprayer was used for spraying a solution to both sides of cotton leaves until runoff. Reference plants (solvent check) were sprayed with the diluent only containing 10% by volume of acetone solvent. Treated plants were held in a holding room for 9 days at approximately 25° C. and ambient relative humidity (RH) prior to grading. Evaluation was conducted by counting the number of live 3-4 nymph stage per plant under a microscope. Percent control was measured by using Abbott's correction formula (W. S. Abbott, “A Method of Computing the Effectiveness of an Insecticide,” J. Econ. Entomol. 18 (1925), pp. 265-267) as follows. Corrected % Control=100*(X−Y)/X
X=No. of live nymphs on solvent check plants and
Y=No. of live nymphs on treated plants.
(§1) Biological Data for Green Peach Aphid (GPA) (MYZUPE) and Sweetpotato Whitefly-crawler (WF) (BEMITA)” (See Table Section).

[2] = system: Green Peach Aphid (Myzus persicae); experiment: Bioassay for Green Peach Aphid (GPA) (MYZUPE), foliar spray on cabbage seedlings; format: in vivo; settings: 72 h, 200 ppm foliar spray, graded after three days, Abbott corrected % control, read-out: % Control (or Mortality) rating, GPA
Protocol: Cabbage seedlings grown in 3-inch pots, with 2-3 small (3-5 cm) true leaves, were used as test substrate. The seedlings were infested with 20-50 GPA (wingless adult and nymph stages) one day prior to chemical application. Four pots with individual seedlings were used for each treatment. Test compounds (2 mg) were dissolved in 2 mL of acetone/methanol (1:1) solvent, forming stock solutions of 1000 ppm test compound. The stock solutions were diluted 5× with 0.025% Tween 20 in H2O to obtain the solution at 200 ppm test compound. A hand-held aspirator-type sprayer was used for spraying a solution to both sides of […] leaves until runoff. Reference plants (solvent check) were sprayed with the diluent only containing 20% by volume of acetone/methanol (1:1) solvent. Treated plants were held in a holding room for three days at approximately 25° C. and ambient relative humidity (RH) prior to grading. Evaluation was conducted by counting the number of live aphids per plant under a microscope. Percent control was measured by using Abbott's correction formula (W. S. Abbott, “A Method of Computing the Effectiveness of an Insecticide,” J. Econ. Entomol. 18 (1925), pp. 265-267) as follows. Corrected % Control=100*(X−Y)/X
X=No. of live aphids on solvent check plants and
Y=No. of live aphids on treated plants
as §1

## CCN(C(=O)CC[S+]([O-])CC1CC1(F)F)c1cn(-c2ccc[n+]([O-])c2)nc1Cl (stereo not drawn) [Compound P49, 3-(3-Chloro-4-(3-(((2,2-difluorocyclopropyl)methyl)sulfinyl)-N-ethylpropanamido)-1H-pyrazol-1-yl)pyridine 1-oxide]
[1]
  mortality at 200 ppm: 80 to 100%
[2]
  mortality at 200 ppm: 80 to 100%

## CCN(C(=O)CCSCC(F)(F)F)c1cn(-c2ccc[n+]([O-])c2)nc1Cl [Compound P50, 3-(3-chloro-4-(N-ethyl-3-((2,2,2-trifluoroethyl)thio)propanamido)-1H-pyrazol-1-yl)pyridine 1-oxide]
[1]
  mortality at 200 ppm: 80 to 100%
[2]
  mortality at 200 ppm: 80 to 100%

## CCN(C(=O)CCSCCCC(F)(F)F)c1cn(-c2ccc[n+]([O-])c2)nc1Cl [Compound P53, 3-(3-Chloro-4-(N-ethyl-3-((4,4,4-trifluorobutyl)thio)propanamido)-1H-pyrazol-1-yl)pyridine 1-oxide]
[1]
  mortality at 200 ppm: 80 to 100%
[2]
  mortality at 200 ppm: 80 to 100%

## CCN(C(=O)CC[S+]([O-])CCCC(F)(F)F)c1cn(-c2ccc[n+]([O-])c2)nc1Cl (stereo not drawn) [Compound P54, 3-(3-Chloro-4-(N-ethyl-3-((4,4,4-trilluorobutyl)sulfinyl)propanamido)-1H-pyrazol-1-yl)pyridine 1-oxide]
[1]
  mortality at 200 ppm: 80 to 100%
[2]
  mortality at 200 ppm: 80 to 100%

## CN(C(=O)CCSCC1CC1(F)F)c1cn(-c2ccc[n+]([O-])c2)nc1Cl (stereo not drawn) [Compound P56, 3-(3-Chloro-4-(3-(((2,2-difluorocyclopropyl)methyl)thio)-N-methylpropanamido)-1H-pyrazol-1-yl)pyridine 1-oxide]
[1]
  mortality at 200 ppm: 80 to 100%
[2]
  mortality at 200 ppm: 80 to 100%

## CN(C(=O)CC[S+]([O-])CC1CC1(F)F)c1cn(-c2ccc[n+]([O-])c2)nc1Cl (stereo not drawn) [Compound P57, 3-(3-Chloro-4-(3-(((2,2-difluorocyclopropyl)methyl)sulfinyl)-N-methylpropanamido)-1H-pyrazol-1-yl)pyridine 1-oxide]
[1]
  mortality at 200 ppm: 80 to 100%
[2]
  mortality at 200 ppm: 80 to 100%

## CN(C(=O)CCSCCCC(F)(F)F)c1cn(-c2ccc[n+]([O-])c2)nc1Cl [Compound P62, 3-(3-Chloro-4-(N-methyl-3-((4,4,4-trifluorobutyl)thio)propanamido)-1H-pyrazol-1-yl)pyridine 1-oxide]
[1]
  mortality at 200 ppm: 80 to 100%
[2]
  mortality at 200 ppm: 80 to 100%

## CN(C(=O)CC[S+]([O-])CCCC(F)(F)F)c1cn(-c2ccc[n+]([O-])c2)nc1Cl (stereo not drawn) [Compound P63, 3-(3-Chloro-4-(N-methyl-3-((4,4,4-trifluorobutyl)sulfinyl)propanamido)-1H-pyrazol-1-yl)pyridine 1-oxide]
[1]
  mortality at 200 ppm: 80 to 100%
[2]
  mortality at 200 ppm: 80 to 100%

## C#CCN(C(=O)CCSCC1CC1(F)F)c1cn(-c2ccc[n+]([O-])c2)nc1Cl (stereo not drawn) [Compound P65, 3-(3-Chloro-4-(3-(((2,2-difluorocyclopropyl)methyl)thio)-N-(prop-2-yn-1-yl)propanamido)-1H-pyrazol-1-yl)pyridine 1-oxide]
[1]
  mortality at 200 ppm: 80 to 100%
[2]
  mortality at 200 ppm: 80 to 100%

## C#CCN(C(=O)CC[S+]([O-])CC1CC1(F)F)c1cn(-c2ccc[n+]([O-])c2)nc1Cl (stereo not drawn) [Compound P66, 3-(3-Chloro-4-(3-(((2,2-difluorocyclopropyl)methyl)sulfinyl)-N-(prop-2-yn-1-yl)propanamido)-1H-pyrazol-1-yl)pyridine 1-oxide]
[1]
  mortality at 200 ppm: 80 to 100%
[2]
  mortality at 200 ppm: 80 to 100%

## C#CCN(C(=O)CCSCCCC(F)(F)F)c1cn(-c2ccc[n+]([O-])c2)nc1Cl [Compound P71, 3-(3-Chloro-4-(N-(prop-2-yn-1-yl)-3-((4,4,4-trifluorobutyl)thio)propanamido)-1H-pyrazol-1-yl)pyridine 1-oxide]
[1]
  mortality at 200 ppm: 80 to 100%
[2]
  mortality at 200 ppm: 80 to 100%

## C#CCN(C(=O)CC[S+]([O-])CCCC(F)(F)F)c1cn(-c2ccc[n+]([O-])c2)nc1Cl (stereo not drawn) [Compound P72, 3-(3-Chloro-4-(N-(prop-2-yn-1-yl)-3-((4,4,4-trifluorobutyl)sulfinyl)propanamido)-1H-pyrazol-1-yl)pyridine 1-oxide]
[1]
  mortality at 200 ppm: 80 to 100%
[2]
  mortality at 200 ppm: 80 to 100%

## CCN(C(=O)CCSCC1CC1(F)F)c1cn(-c2ccc[n+]([O-])c2)nc1C (stereo not drawn) [Compound P74, 3-(4-(3-(((2,2-Difluorocyclopropyl)methyl)thio)-N-ethylpropanamido)-3-methyl-1H-pyrazol-1-yl)pyridine 1-oxide]
[1]
  mortality at 200 ppm: 80 to 100%
[2]
  mortality at 200 ppm: 80 to 100%

## CCN(C(=O)CC[S+]([O-])CC1CC1(F)F)c1cn(-c2ccc[n+]([O-])c2)nc1C (stereo not drawn) [Compound P75, 3-(4-(3-(((2,2-Difluorocyclopropyl)methyl)sulfinyl)-N-ethylpropan-amido)-3-methyl-1H-pyrazol-1-yl)pyridine 1-oxide]
[1]
  mortality at 200 ppm: 80 to 100%
[2]
  mortality at 200 ppm: 80 to 100%

## CCN(C(=O)CCSCCCC(F)(F)F)c1cn(-c2ccc[n+]([O-])c2)nc1C [Compound P80, 3-(4-(N-Ethyl-3-((4,4,4-trifluorobutyl)thio)propanamido)-3-methyl-1H-pyrazol-1-yl)pyridine 1-oxide]
[1]
  mortality at 200 ppm: 80 to 100%
[2]
  mortality at 200 ppm: 80 to 100%

## CCN(C(=O)CC[S+]([O-])CCCC(F)(F)F)c1cn(-c2ccc[n+]([O-])c2)nc1C (stereo not drawn) [Compound P81, 3-(4-(N-Ethyl-3-((4,4,4-trilluorobutyl)sulfinyl)propanamido)-3-methyl-1H-pyrazol-1-yl)pyridine 1-oxide]
[1]
  mortality at 200 ppm: 80 to 100%
[2]
  mortality at 200 ppm: 80 to 100%

## CCN(C(=O)CCSCC1CC1(F)F)c1cn(-c2cc(F)c[n+]([O-])c2)nc1Cl (stereo not drawn) [Compound P92, 3-(3-Chloro-4-(3-(((2,2-difluorocyclopropyl)methyl)thio)-N-ethylpropanamido)-1H-pyrazol-1-yl)-5-fluoropyridine 1-oxide]
[1]
  mortality at 200 ppm: 80 to 100%
[2]
  mortality at 200 ppm: 80 to 100%

## CCN(C(=O)CC[S+]([O-])CC1CC1(F)F)c1cn(-c2cc(F)c[n+]([O-])c2)nc1Cl (stereo not drawn) [Compound P93, 3-(3-Chloro-4-(3-(((2,2-difluorocyclopropyl)methyl)sulfinyl)-N-ethylpropanamido)-1H-pyrazol-1-yl)-5-fluoropyridine 1-oxide]
[1]
  mortality at 200 ppm: 80 to 100%
[2]
  mortality at 200 ppm: 80 to 100%

## CCN(C(=O)CCSCCCC(F)(F)F)c1cn(-c2cc(F)c[n+]([O-])c2)nc1Cl [Compound P98, 3-(3-Chloro-4-(N-ethyl-3-((4,4,4-trilluorobutyl)thio)propanamido)-1H-pyrazol-1-yl)-5-fluoropyridine 1-oxide]
[1]
  mortality at 200 ppm: 80 to 100%
[2]
  mortality at 200 ppm: 0 to 80%

## CCN(C(=O)CC[S+]([O-])CCCC(F)(F)F)c1cn(-c2cc(F)c[n+]([O-])c2)nc1Cl (stereo not drawn) [Compound P99, 3-(3-Chloro-4-(N-ethyl-3-((4,4,4-trilluorobutyl)sulfinyl)propanamido)-1H-pyrazol-1-yl)-5-fluoropyridine 1-oxide]
[1]
  mortality at 200 ppm: 80 to 100%
[2]
  mortality at 200 ppm: 80 to 100%

## CCN(C(=O)C(C)CSCCC(F)(F)F)c1cn(-c2ccc[n+]([O-])c2)nc1C (stereo not drawn) [FA1, 3-(4-(N-Ethyl-2-methyl-3-((3,3,3-trilluoropropyl)thio)propanamido)-3-methyl-1H-pyrazol-1-yl)pyridine 1-oxide]
[1]
  mortality at 200 ppm: 80 to 100%
[2]
  mortality at 200 ppm: 80 to 100%

## CCN(C(=O)C(C)CSCCC(F)(F)F)c1cn(-c2cc(F)c[n+]([O-])c2)nc1Cl (stereo not drawn) [FA2, 3-(3-Chloro-4-(N-ethyl-2-methyl-3-((3,3,3-trifluoropropyl)thio)propanamido)-1H-pyrazol-1-yl)-5-fluoropyridine 1-oxide]
[1]
  mortality at 200 ppm: 80 to 100%
[2]
  mortality at 200 ppm: 80 to 100%

## CCN(C(=O)C(C)CSCCC(F)(F)F)c1cn(-c2ccc[n+]([O-])c2)nc1Cl (stereo not drawn) [FA3, 3-(3-Chloro-4-(N-ethyl-2-methyl-3-((3,3,3-trifluoropropyl)thio)propanamido)-1H-pyrazol-1-yl)pyridine 1-oxide]
[1]
  mortality at 200 ppm: 80 to 100%
[2]
  mortality at 200 ppm: 80 to 100%

## C#CCN(C(=O)C(C)CSCCC(F)(F)F)c1cn(-c2ccc[n+]([O-])c2)nc1Cl (stereo not drawn) [FA4, 3-(3-Chloro-4-(2-methyl-N-(prop-2-yn-1-yl)-3-((3,3,3trifluoropropyl)thio)propanamido)-1H-pyrazol-1-yl)pyridine 1-oxide]
[1]
  mortality at 200 ppm: 80 to 100%
[2]
  mortality at 200 ppm: 80 to 100%
